Measured values: patent US20210361600A1, “METHODS FOR INDUCING CHONDROGENESIS” (THE SCRIPPS RESEARCH INSTITUTE, priority 2017, published 2021)
Entries after “also recorded” stand apart in the source; their conditions may differ.

Legend:
[1] = Intra-articular acute toxicity study in the Beagle dog (toxicokinetics); conditions: for Tlast / AUC(0-t) / Cmax: male dogs, plasma
[2] = tested on: Canine Model of Osteoarthritis; assay: Efficacy of compound A in a canine model of osteoarthritis; assay type: in vivo, Beagle dogs
Description: The clear solution was then filtered in a 0.45 μm filter prior to intraarticular dose. Dosing solution was prepared fresh on the day of dosing.
Twelve to fifteen-month-old female naïve Beagle dogs were obtained from Marshall BioResouces (North Rose, N.Y.) with a weight range of 5.4 to 9.3 kilograms.
The goal was to sort and ensure that behavioral characteristics were shared among all groups, so that the activity level and use of the joints while not in regimented exercise would be uniform between groups. In addition to sorting by temperament, animals were also sorted by body weights, with equal distribution between study groups. Animals were acclimated to an exercise regimen of 1 hour of walking/running/playing prior to study start.
Animals were food deprived prior to surgery, anesthetized using propofol (6 mg/kg, IV), and maintained on isoflurane (3-4%) in oxygen (2 L/min) for the duration of the procedure (10-15 minutes). The right rear knee was shaved and aseptically prepared. A medial skin incision was made to expose the collateral ligament. A portion of the medial meniscus was cut (a wedge roughly half the width of the medial meniscus was removed). The joint capsule and subcutis were closed with sutures, and skin closed with wound clips. Sham animals were treated in the same manner except for the medial meniscus partial transection. All animals were allowed to recover for 10-11 days prior to dosing. Three days after surgery, all animals began an exercise regimen of one hour of continuous exercise (walking/running/playing), to ensure that the animals were using the surgerized leg and to allow for a more uniform development of lesions across a group of differently tempered dogs.
All animals were exercised 5 days a week for an hour for the duration of the study. At study day 10/11, animals began receiving weekly injections of either compound or vehicle into the surgerized joint. Blood samples were also taken pre-dose for all animals for compound determination. Animals received doses at day 10, 17, 24, 31, 38, and 45 post surgery. All intraarticular doses were standardized to 0.5 mL injections into the joint capsule via injection through the patellar ligament.
On day 52, animals received a terminal blood sample and were euthanized. Plasma samples were used for biomarker determination. Urine and synovial fluid was collected at necropsy, and the knees were harvested for histology and pathology analysis.
Osteoarthritic lesions were scored based on lesion size, depth, severity and changes in subchondral bone and osteophyte formation. Both the femur and the tibia on either side of the meniscal cut were examined. Statistical analysis used Student's two-tailed test or Mann-Whitney U Test (non-parametric).
For terminal plasma samples, biomarker ELISAs were run to quantify levels of PIINP. The kit procedures were followed as per manufacturer's instructions. Data were analyzed with a Student's t-test.

in vivo [3] = conditions: male, Crl:CD(SD), rat, 2.1 ug
[4] = tested on: Rat Medial Meniscal Tear Model; assay: Effect of dose frequency of compound A in a rat medial meniscal tear model; assay type: in vivo, Lewis rats
Description: The vehicle was prepared separately, then added to aliquots of compound A powder, and the mixture was then vortexed until it becomes a clear solution. Dosing solutions were prepared for doses of 3.5 and 0.35 μg/kg (100 μM and 10 μM respectively). Dosing volume was set to 30 μL/knee. Dosing solutions were prepared fresh weekly.
Fourteen-week-old male Lewis rats (Charles River, Kingston, N.Y.) were in the weight range of 300-320 g at the start of the study
Rats were sorted based on body weight into 8 study groups of 15 rats. They were surgerized and enrolled in a staggered fashion across one week (20 animals per day for 6 days). Briefly, animals were anesthetized with a ketamine/xylazine cocktail (50 mg/kg Ketaved—Henry Schein, and 5 mg/kg Xyalzine—AniSed respectively) by intraperitoneal injection, administered appropriate analgesics (Flunixin, 5 mg/kg subcutaneous injection), and the surgical site shaved and disinfected. A small incision was made on the medial right hind knee to expose the collateral ligament. The collateral ligament was transected and the joint capsule opened sufficiently to expose the medial meniscus. The meniscus was transected completely, then the skin incision was closed, and pressure applied to the wound to prevent hematoma development. Animals were allowed to recover on a heated blanket and were returned to their home cage. Sham procedures were carried out in a similar fashion, except the medial meniscus was not cut. All surgical procedures were performed aseptically and all procedures were approved by the institute IACUC. Animals were monitored daily for the following week for postoperative care prior to dosing. Any animals with atypical healing (bruising/hematoma) were removed from the study and replaced with spare animals.
Animals were weighed weekly at the time of dosing (8-10 am), and a standardized dose of 30 μl of either vehicle or compound was administered via injection into the intra-articular space according to the regimens outlined above (groups A, B, E and H dosed once weekly, groups C and F dosed every other week, and groups D and G dosed once for the duration of the study). Animals were dosed using a Hamilton syringe with a 27 G needle attached. On study day 28, animals were euthanized, a terminal blood sample collected, and knees were harvested and placed in formalin jars for histology analysis and pathology scoring.
Analysis of the knee joint histology was performed by Bolder BioPATH. A variety of measurements to characterize the lesions were performed to score the joints based on lesion depth, severity, and overall size.

in vivo [5] = conditions: male, beagle, dog, 70 μg/knee/week
FLNA FC-1 fragment = assay: In vitro FLNA binding (competition with biotin-KGN-azide probe); conditions: 25 μM compound A, 0.5 μM BKA, FC-1 fragment 10 μg/mL, 1 hr
Description: The biological mechanism of kartogenin (KGN) was elucidated through synthesis of a biotin-kartogenin-azide (BKA) affinity probe which was used as a tool to identify the subsequent interaction with FLNA.

[6] = Intravenous acute toxicity study in Crl:CD(SD) rat (toxicokinetics); assay type: in vivo; conditions: for AUC(0-t) / Cmax / half-life: Crl:CD(SD), rat, plasma; for Tlast: median
Description: For toxicokinetic evaluation, an additional 3 rats/sex/group were added for the 1 or 2.4 mg/kg dose groups. Toxicokinetic parameters were determined, where feasible, by non-compartmental analysis.

[7] = Intra-articular acute toxicity study in Crl:CD(SD) rat (toxicokinetics); conditions: for Tlast: male rats, median
[8] = Intra-articular single dose pharmacokinetics study in rat; assay type: in vivo; conditions: for concentration in the knee: 1.05 μg/knee
[9] = dose increment of 2.9 fold (from 35 to 100 ng)
[10] = single IA 35 μg/knee, individual animals 41M, 42M
[11] = single IA 100 μg/knee, individual animals 43M, 44M
[12] = single IA 200 μg/knee, individual animals 45M, 46M
[13] = 0.035 mg/knee IA weekly for 6 weeks, vs vehicle
[14] = female rats, single IV 1 mg/kg, mean
[15] = female rats, single IV 2.4 mg/kg, mean
[16] = male rats, single IV 1 mg/kg, mean
[17] = male rats, single IV 2.4 mg/kg, mean
[18] = dose increment of 5.7 fold (from 2.1 to 12 μg)
[19] = male, Crl:CD(SD), rat, plasma, 12 ug
[20] = rat, plasma, 1.05 ug, single IA dose 1.05 μg/knee

Compound: COCCc1ccc(NC(=O)c2ccccc2NS(C)(=O)=O)cc1 [Compound A, N-(4-(2-methoxyethyl)phenyl)-2-(methylsulfonamido)benzamide]
- concentrations in synovial fluid samples ([1]; at study termination, below the LLQ): < 0.5 ng/mL
- increase in mean AUC0-t [1, 9]: 0.7 fold
- increase in mean Cmax [1, 9]: 0.7 fold
- increase in mean AUC0-t ([1]; dose increment of 5.7 fold): approximately 1.5 fold
- increase in mean Cmax ([1]; dose increment of 5.7 fold): approximately 1.5 fold
- Tlast ([1]; single IA 35 μg/knee, Mean): 4.00 h
- AUC(0-t) [1, 10]: 5.41 ng·h/mL
- Cmax [1, 10]: 2.21 ng/mL
- Tlast [1, 10]: 4.00 h
- Tlast ([1]; single IA 100 μg/knee, Mean): 4.00 h
- AUC(0-t) [1, 11]: 11.7 ng·h/mL
- Cmax [1, 11]: 4.75 ng/mL
- Tlast [1, 11]: 4.00 h
- Tlast ([1]; single IA 200 μg/knee, Mean): 4.00 h
- AUC(0-t) [1, 12]: 9.60 ng·h/mL
- Cmax [1, 12]: 3.21 ng/mL
- Tlast [1, 12]: 4.00 h
- AUC(0-t) ([1]; male, beagle, dog, 35 μg/knee, AUC0-t, single IA 35 μg/knee, Mean): 5.31 ng·h/mL
- AUC(0-t) ([1]; male, beagle, dog, 35 μg/knee, AUC0-t, single IA 35 μg/knee, individual animals 41M, 42M): 5.21 ng·h/mL
- Cmax ([1]; male, beagle, dog, 35 μg/knee, Cmax, single IA 35 μg/knee, Mean): 2.17 ng/mL
- Cmax ([1]; male, beagle, dog, 35 μg/knee, Cmax, single IA 35 μg/knee, individual animals 41M, 42M): 2.14 ng/mL
- AUC(0-t) ([1]; male, beagle, dog, 100 μg/knee, AUC0-t, single IA 100 μg/knee, Mean): 12.3 ng·h/mL
- AUC(0-t) ([1]; male, beagle, dog, 100 μg/knee, AUC0-t, single IA 100 μg/knee, individual animals 43M, 44M): 13 ng·h/mL
- Cmax ([1]; male, beagle, dog, 100 μg/knee, Cmax, single IA 100 μg/knee, Mean): 4.59 ng/mL
- Cmax ([1]; male, beagle, dog, 100 μg/knee, Cmax, single IA 100 μg/knee, individual animals 43M, 44M): 4.43 ng/mL
- AUC(0-t) ([1]; male, beagle, dog, 200 μg/knee, AUC0-t, single IA 200 μg/knee, Mean): 8.89 ng·h/mL
- AUC(0-t) ([1]; male, beagle, dog, 200 μg/knee, AUC0-t, single IA 200 μg/knee, individual animals 45M, 46M): 8.18 ng·h/mL
- Cmax ([1]; male, beagle, dog, 200 μg/knee, Cmax, single IA 200 μg/knee, Mean): 3.01 ng/mL
- Cmax ([1]; male, beagle, dog, 200 μg/knee, Cmax, single IA 200 μg/knee, individual animals 45M, 46M): 2.81 ng/mL
- degree of substantial cartilage degeneration in the femur [2, 13]: significantly improved; also recorded: significant reduction
- level of bone sclerosis [2, 13]: reduced; also recorded: improved
- width of total cartilage degeneration (all severities), femur [2, 13]: no effect
- tibial cartilage damage ([2]; effect not statistically significant): less severe
- circulating PIINP in plasma (ELISA) ([2]; terminal samples 1 week post final dose, vs vehicle): significantly elevated
- Cmax (in vivo [3]): 13.8 ng/mL
- combined cartilage degeneration widths with scores from mild to severe ([4]; 10 μM (0.105 μg/knee) IA once every other week, vs vehicle): statistically significant improvement
- substantial cartilage degeneration width ([4]; 10 μM (0.105 μg/knee) IA once weekly or once every other week, vs vehicle): improvement
- mild-to-severe degeneration widths ([4]; 10 μM (0.105 μg/knee) IA weekly): trend towards a reduction
- adverse effects ([4]; IA, any dosing schedule (once weekly, once every other week, once per study), 100 μM or 10 μM): no adverse effects
- progression of cartilage degeneration ([4]; dosing once every four weeks): did not demonstrate an effect
- width of cartilage lesions where greater than 10% of the cartilage is damaged or lost ([4]; dosing once every other week): significant reduction
- most severe cartilage lesions ([4]; not statistically significant): trend towards an improvement
- AUC(0-t) (in vivo [5]): 13.8 ng·h/mL
- ability of the biotin-KGN-azide probe to bind to the FC-1 fragment of FLNA (FLNA FC-1 fragment): inhibited
- AUC(0-t) [6, 14]: 2900 ng·h/mL
- Cmax [6, 14]: 9190 ng/mL
- half-life [6, 14]: 28.8 min
- Cmax [6, 15]: 9020 ng/mL
- half-life [6, 15]: 31.8 min
- AUC(0-t) ([6]; female rats, single IV 2.4 mg/kg, mean, t = 4 hours): 5690 ng·h/mL
- AUC(0-t) [6, 16]: 2500 ng·h/mL
- Cmax [6, 16]: 11200 ng/mL
- half-life [6, 16]: 22.2 min
- AUC(0-t) [6, 17]: 4510 ng·h/mL
- Cmax [6, 17]: 9430 ng/mL
- half-life [6, 17]: 24 min
- half-life ([6]; both sexes, single IV administration, range over groups): 18 to 36 min
- Tlast ([6]; female rats, single IV 1 mg/kg): 2 h
- Tlast ([6]; female rats, single IV 2.4 mg/kg): 4 h
- mean AUC0-t, higher dose compared to 1 mg/kg ([6]; females, single IV): ~2.0 fold
- Tlast ([6]; male rats, single IV 1 mg/kg): 2 h
- Tlast ([6]; male rats, single IV 2.4 mg/kg): 2 h
- mean AUC0-t, higher dose compared to 1 mg/kg ([6]; males, single IV): approximately 1.8 fold
- gender differences in systemic exposure (Cmax and AUC0-t) ([6]; single IV, either dosing regimen): no notable gender differences
- increase in mean AUC0-t [7, 18]: 2 fold
- increase in mean Cmax [7, 18]: 2 fold
- Tlast ([7]; single IA dose 2.1 μg/knee, plasma): 2.00 h
- Tlast ([7]; single IA dose 12 μg/knee, plasma): 2.00 h
- AUC(0-t) ([7]; male, Crl:CD(SD), rat, plasma, 2.1 ug): 12.1 ng·h/mL
- AUC(0-t) [7, 19]: 23.9 ng·h/mL
- Cmax [7, 19]: 27.8 ng/mL
- concentration in the knee ([8]; 120 minutes after single IA injection): LLQ
- concentration in the knee ([8]; immediately after single IA injection): 925.5 ng/mL
- AUC(0-inf) [8, 20]: 33.9 ng·h/mL
- Cmax [8, 20]: 53.3 ng/mL
- half-life ([8]; rat, plasma, 1.05 ug, single IA dose 1.05 μg/knee, read-out: plasma t1/2 (converted)): 28.9 min
